≈ marks a conversion by molar mass, not a printed value. Where “and” joins values, the source holds several entries; their conditions need not be identical. Equal values may be shown once. Read-outs that look alike come from different tables or passages of the source. No end group written: not given here.
Legend:
[1] = tested on: Acinetobacter spp. isolates (n = 104); experiment: Broth microdilution MIC, clinical isolate panel; format: cell-based; conditions: Acinetobacter spp. (n = 104)
Protocol: (§1) Comparator antibiotics were supplied by Micromyx, and stock solutions were prepared on the first day of testing using solvents recommended by CLSI (1). Stock solutions of all compounds were made at 40× the final testing concentration and stored at −80° C. prior to testing. Information regarding compound source, catalog and lot number, testing concentrations and drug diluent for the comparators and test agent are detailed below in Table 3.
(§2) The test organisms evaluated in this study consisted of clinical isolates from the Micromyx Repository and reference isolates from the American Type Culture Collection (ATCC; Manassas, Va.). The clinical isolates were obtained from USA hospitals. Upon initial receipt at Micromyx, the organisms were sub-cultured onto an appropriate agar medium. Following incubation, colonies were harvested from these plates and cell suspensions prepared and frozen at −80° C. with a cryoprotectant. Prior to testing, the isolates were streaked from frozen vials onto Trypticase Soy Agar with 5% sheep blood (Becton Dickenson [BD]; Sparks, Md.; Lot Nos. 7173618, 7166759, 7208688, 72144895, 7228505 and Remel Lenexa, Kans. Lot No. 212574). Plates were incubated at 35° C. overnight.
(§3) Mueller Hinton II broth (MHB II; BD; Lot Nos. 6258541 and 7143896) was used for MIC testing of aerobic organisms.
(§4) MIC values were determined using a broth microdilution procedure described by CLSI (1, 3). Automated liquid handlers (Multidrop 384, Labsystems, Helsinki, Finland; Biomek 2000 and Biomek FX, Beckman Coulter, Fullerton Calif.) were used to conduct serial dilutions and liquid transfers.
(§5) To prepare the drug mother plates, which would provide the serial drug dilutions for the replicate daughter plates, the wells of columns 2-12 of standard 96-well microdilution plates (Costar 3795) were filled with 150 μl of the designated diluent for each row of drug. The test articles and comparator compounds (300 μl at 40× the highest concentration to be tested) were dispensed into the appropriate wells in column 1. The Biomek 2000 was then used to make 2-fold serial dilutions in the mother plates from column 1 through column 11. The wells of Column 12 contained no drug and served as the organism growth control wells for the assay.
(§6) The daughter plates were loaded with 185 μL per well of MHB II using the Multidrop 384. The daughter plates were completed on the Biomek FX instrument which transferred 5 µL of drug solution from each well of a mother plate to the corresponding well of each daughter plate in a single step. A standardized inoculum of each test organism was prepared per CLSI methods (1). The inoculum for each organism was dispensed into sterile reservoirs divided by length (Beckman Coulter), and the Biomek 2000 was used to inoculate the plates. Daughter plates were placed on the Biomek 2000 work surface in reverse orientation so that inoculation took place from low to high drug concentration.
(§7) Plates were stacked 3-4 high, covered with a lid on the top plate, placed in plastic bags, and incubated at 35° C. for 16 to 20 hrs. Following incubation, the microplates were removed from the incubator and viewed from the bottom using a plate viewer. […] The MIC was read and recorded as the lowest concentration of drug that inhibited visible growth of the organism.
(§8) Clinical breakpoints to determine percent resistance within a given organism group were obtained from CLSI (3), with the exception of colistin for K. pneumoniae, Enterobacter spp., and E. coli, which are only available from EUCAST.

[2] = tested on: Klebsiella pneumoniae isolates (n = 101); experiment: Broth microdilution MIC, clinical isolate panel; format: cell-based; conditions: Klebsiella pneumoniae (n = 101)
Protocol: as §1, §2, §3, §4, §5, §6, §7, §8

[3] = tested on: Escherichia coli isolates (n = 101); experiment: Broth microdilution MIC, clinical isolate panel; format: cell-based; conditions: Escherichia coli (n = 101)
Protocol: as §1, §2, §3, §4, §5, §6, §7, §8

[4] = tested on: Pseudomonas aeruginosa isolates (n = 109); experiment: Broth microdilution MIC, clinical isolate panel; format: cell-based; conditions: Pseudomonas aeruginosa
Protocol: as §1, §2, §3, §4, §5, §6, §7, §8

[5] = mouse, in vivo, iv; for Vd: male CD-1 mice
Text: Male CD-1 mice will be received from an approved vendor and allowed to acclimate for a minimum of two days. Fasting will be not required.
All dosing syringes will be weighed prior to and following dosing. IV doses will be administered as a slow bolus (over ˜30 seconds) via direct venipuncture of a tail vein. All animals will be observed at dosing and each scheduled collection. All abnormalities will be recorded.
Terminal blood samples will be collected via cardiac puncture following inhalation anesthesia.
Sample Processing and Storage: Blood samples will be collected into K2EDTA tubes and stored on wet ice. Whole blood will be processed to plasma by centrifugation (3500 rpm at 5° C.) within 30 minutes of collection. Plasma samples will be split into 2 equal aliquots and each transferred into 96 well plates (matrix tubes) and stored at −80° C. until analysis. Administered doses will be determined gravimetrically.
Pharmacokinetic parameters will be calculated using non-compartmental methods as implemented in the Phoenix® WinNonlin® ver. 6.3 comprehensive TK/PK analysis software program (Pharsight Corporation; Mountain View, Calif.) using an IV infusion model. Pharmacokinetic analysis will be conducted using a 30-minute intravenous infusion time. Therefore, 30 minutes will be added to each sample time point postdose to obtain nominal time for TK analysis. Nominal times and dosage levels will be used for all calculations. Values below the lower limit of quantitation (BLQ) will be assigned a value of zero for the pharmacokinetic calculations. Microsoft® Excel® 2013 will be used for receipt of bioanalytical data, minor formatting, including setting BLQ values to “0”, transfer into WinNonlin® for PK analysis, and calculation of the mean when an approximated value will be excluded. All plasma concentration data from all animals will be included in the analysis. Graphical presentations will be performed using Microsoft® Excel® 2013.

[6] = for AUC(0-inf): AUCinf; for clearance: CL; for half-life: T 1/2, macaque; for Vd: Vss
Protocol: Animals will be obtained from the Test Facility's colony of adult male cynomolgous monkeys (Macaca fascicularis) of Chinese origin. Animals will be weighed prior to dosing.
Animals will be fasted a minimum of 2 hours prior to procedures requiring the administration of ketamine anesthesia. The diet will also be supplemented with other nutrients by feeding items such as raisins or fresh fruits that are presented to the animal as part of an environmental enrichment program. Offering items known to cause diarrhea will be avoided.
Intravenous administration will be via 30 minute infusion into a temporary percutaneous catheter placed into a saphenous vein. Prior to and following dose administration, the catheter will be flushed with 0.5 mL saline prior to removal. All dosing syringes will be weighed prior to and following dosing.
All animals will be observed at dosing and each scheduled collection. All abnormalities will be recorded.
Serial blood samples will be collected via femoral vein (cephalic or saphenous, as necessary). Approximately 1 mL blood samples will be collected into K2EDTA tubes.
Blood samples will be collected into K2EDTA tubes and stored on wet ice. Whole blood will be processed to plasma by centrifugation (2400-2700 rpm at 5° C.) within 30 minutes of collection. Plasma samples will be split into 2 equal aliquots and stored at −80° C. until analysis.
Administered doses will be determined gravimetrically.
Prior to extraction, a known concentration of a mass-adjusted internal standard (IS) will be added to assess recovery and allow for quantitation. Purified samples will be further subjected to high-performance liquid chromatography (HPLC) using C18 300 or 130 angstrom columns prior to MS/MS analysis. Multiple charge states will be observed by MS, so MS/MS will be employed to enable multiple reaction monitoring (MRM) analyses to determine the most MRM transitions with the highest signal-to-noise gain. Compound plasma concentrations will be determined by comparing to and compensating with co-purified IS peak intensity and validated calibrated standard curves.
Toxicokinetic parameters will be calculated using non-compartmental methods as implemented in the Phoenix® WinNonlin® ver. 6.3 comprehensive TK/PK analysis software program (Pharsight Corporation; Mountain View, Calif.) using an IV infusion model. Toxicokinetic analysis will be conducted using a 30-minute intravenous infusion time. Therefore, 30 minutes will be added to each sample time point postdose to obtain nominal time for TK analysis. Nominal times and dosage levels will be used for all calculations. Values below the lower limit of quantitation (BLQ) will be assigned a value of zero for the toxicokinetic calculations. Microsoft® Excel® 2013 will be used for receipt of bioanalytical data, minor formatting, including setting BLQ values to “0”, transfer into WinNonlin® for TK analysis, and calculation of the mean when an approximated value will be excluded. All plasma concentration data from all animals will be included in the analysis. Graphical presentations will be performed using Prism® for Macintosh ver. 7.0a (GraphPad, Inc.; La Jolla, Calif.).

[7] = tested on: Staphylococcus aureus isolates (n = 104); experiment: Broth microdilution MIC, clinical isolate panel; format: cell-based; conditions: for MIC: read-out: Mode (MIC)
Protocol: as §1, §2, §3, §4, §5, §6, §7, §8

[8] = tested on: Enterococcus faecium isolates (n = 104); experiment: Broth microdilution MIC, clinical isolate panel; format: cell-based; conditions: for % R (percent of isolates resistant, clinical breakpoints): Enterococcus faecium (n = 104)
Protocol: as §1, §2, §3, §4, §5, §6, §7, §8

[9] = cynomolgus monkey, in vivo, iv, 1 mg/kg, macaque, 1 mg/kg IV infusion, Mean
[10] = cynomolgus monkey, in vivo, iv, 3 mg/kg, macaque, 3 mg/kg IV infusion, Mean
[11] = cynomolgus monkey, in vivo, iv, 10 mg/kg, macaque, 10 mg/kg IV infusion, Mean
[12] = Staphylococcus aureus (n = 104), all methicillin-resistant

## CC(C)(O/N=C(\C(=O)N[C@@H]1C(=O)N2C(C(=O)[O-])=C(C[n+]3ccccc3)CS[C@H]12)c1csc(N)n1)C(=O)O [Ceftazidime]
[1]
  MIC50: > 32 µg/mL
[2]
  % R (percent of isolates resistant, clinical breakpoints): Over 80%
  MIC50: > 32 µg/mL
[3]
  MIC50: 0.5 µg/mL (≈ 0.915 µM)
[3]; read-out: Mode (MIC)
  MIC: 0.25 µg/mL (≈ 0.457 µM)
[4]
  MIC50: 4 µg/mL (≈ 7.32 µM)
[4]; read-out: Mode (MIC)
  MIC: 2 µg/mL (≈ 3.66 µM)

## RRWVRRVRRVWRRVVRVVRRWVRR-NH2 [SEQ ID NO: 1]
[5]; 3 mg/kg
  AUC(0-inf): < 3500 ng·h/mL
  C0: 26000 ng/mL
  Cmax: 16600 ng/mL
  MRT last: ~0.5 h
  Tmax: 0.303 h
  clearance: ~5 mL/min/kg
  half-life: ~8 h
[5]; 3 mg/kg, Vss, 3 mg/kg IV
  Vd: ~0.2 L/kg
[5]; 3 mg/kg, Vz, 3 mg/kg IV
  Vd: ~3 L/kg
[5]; 15 mg/kg
  AUC(0-inf): 53800 ng·h/mL
  AUC(0-t): 53600 ng·h/mL
  C0: 192000 ng/mL
  Cmax: 163000 ng/mL
  MRT last: 0.579 h
  clearance: 4.65 mL/min/kg
  half-life: 7.45 h
[5]; 15 mg/kg, Vss, 15 mg/kg IV
  Vd: 0.208 L/kg
[5]; 15 mg/kg, Vz, 15 mg/kg IV
  Vd: 3 L/kg
[6]; cynomolgus monkey, in vivo, iv, 1 mg/kg, AUC0-24hr, macaque, 1 mg/kg IV infusion, Mean
  AUC(0-t): 1090 ng·h/mL
[6]; [9]
  AUC(0-inf): 1170 ng·h/mL
  clearance: 18.5 mL/min/kg
  Cmax: 1710 ng/mL
  Vd: 1.38 L/kg
[6]; cynomolgus monkey, in vivo, iv, 1 mg/kg, AUClast, macaque, 1 mg/kg IV infusion, Mean
  AUC(0-t): 983 ng·h/mL
[6]; cynomolgus monkey, in vivo, iv, 1 mg/kg, 1 mg/kg IV infusion, Mean
  half-life: 2 h
[6]; cynomolgus monkey, in vivo, iv, 1 mg/kg, macaque, 1 mg/kg IV infusion, individual monkey
  Vd: 1.53 L/kg
[6]; cynomolgus monkey, in vivo, iv, 3 mg/kg, AUC0-24hr, macaque, 3 mg/kg IV infusion, Mean
  AUC(0-t): 7580 ng·h/mL
[6]; [10]
  AUC(0-inf): 7710 ng·h/mL
  clearance: 7.18 mL/min/kg
  Cmax: 10300 ng/mL
  Vd: 1.29 L/kg
[6]; cynomolgus monkey, in vivo, iv, 3 mg/kg, AUClast, macaque, 3 mg/kg IV infusion, Mean
  AUC(0-t): 7580 ng·h/mL
[6]; cynomolgus monkey, in vivo, iv, 3 mg/kg, 3 mg/kg IV infusion, Mean
  half-life: 5.2 h
[6]; cynomolgus monkey, in vivo, iv, 3 mg/kg, 3 mg/kg IV infusion, individual monkey
  half-life: 4.4 h
[6]; cynomolgus monkey, in vivo, iv, 3 mg/kg, Tmax, macaque, 3 mg/kg IV infusion, Mean
  Tmax: 6.6 min
[6]; cynomolgus monkey, in vivo, iv, 3 mg/kg, macaque, 3 mg/kg IV infusion, individual monkey
  Vd: 1.58 L/kg
[6]; cynomolgus monkey, in vivo, iv, 10 mg/kg, AUC0-24hr, macaque, 10 mg/kg IV infusion, Mean
  AUC(0-t): 50300 ng·h/mL
[6]; [11]
  AUC(0-inf): 50800 ng·h/mL
  clearance: 6.32 mL/min/kg
  Cmax: 38200 ng/mL
  Vd: 1.26 L/kg
[6]; cynomolgus monkey, in vivo, iv, 10 mg/kg, AUClast, macaque, 10 mg/kg IV infusion, Mean
  AUC(0-t): 50300 ng·h/mL
[6]; cynomolgus monkey, in vivo, iv, 10 mg/kg, 10 mg/kg IV infusion, Mean
  half-life: 4.6 h
[6]; cynomolgus monkey, in vivo, iv, 10 mg/kg, 10 mg/kg IV infusion, individual monkey
  half-life: 4.3 h
[6]; macaque, 3 mg/kg IV infusion, individual monkey, 3 mg/kg
  T 1/2: 6.3 h and 5 h
[6]; macaque, 10 mg/kg IV infusion, individual monkey, 10 mg/kg
  T 1/2: 4.9 h and 4.6 h

## CN[C@H](CC(C)C)C(=O)N[C@H]1C(=O)N[C@@H](CC(N)=O)C(=O)N[C@H]2C(=O)N[C@H]3C(=O)N[C@H](C(=O)N[C@H](C(=O)O)c4cc(O)cc(O)c4-c4cc3ccc4O)[C@H](O)c3ccc(c(Cl)c3)Oc3cc2cc(c3O[C@@H]2O[C@H](CO)[C@@H](O)[C@H](O)[C@H]2O[C@H]2C[C@](C)(N)[C@H](O)[C@H](C)O2)Oc2ccc(cc2Cl)[C@H]1O [Vancomycin]
[7]; [12]
  % R (percent of isolates resistant, clinical breakpoints): 0%
[7]; Staphylococcus aureus
  MIC: 1 µg/mL (≈ 0.69 µM)
[8]
  % R (percent of isolates resistant, clinical breakpoints): 47.1%

## CC(=O)NC[C@H]1CN(c2ccc(N3CCOCC3)c(F)c2)C(=O)O1 [Linezolid]
[7]; [12]
  % R (percent of isolates resistant, clinical breakpoints): 1.9%
  MIC90: 2 µg/mL (≈ 5.93 µM)
  MIC: 2 µg/mL (≈ 5.93 µM)
[8]
  % R (percent of isolates resistant, clinical breakpoints): 3.8%
[8]; Enterococcus faecium, read-out: Mode (MIC)
  MIC: 2 µg/mL (≈ 5.93 µM)

## CCC[C@@H]1C[C@@H](C(=O)N[C@@H]([C@H]2O[C@H](SC)[C@H](O)[C@@H](O)[C@H]2O)[C@H](C)Cl)N(C)C1 [Clindamycin]
[7]; [12]
  MIC50: 0.12 µg/mL (≈ 0.282 µM)

## C[C@H]1c2cccc(O)c2C(=O)C2=C(O)[C@]3(O)C(=O)C(C(N)=O)=C(O)[C@@H](N(C)C)[C@@H]3[C@@H](O)[C@@H]21 [Doxycycline]
[7]; [12]
  % R (percent of isolates resistant, clinical breakpoints): 0%
  MIC50: 0.12 µg/mL (≈ 0.27 µM)
  MIC90: 1 µg/mL (≈ 2.25 µM)

— patent US20200071361A1, “ENGINEERED ANTIMICROBIAL AMPHIPHILIC PEPTIDES AND METHODS OF USE” (priority 2017, published 2020)
